Source: patent US10758623B2, “Pharmaceutically active agent complexes, polymer complexes, and compositions and methods involving the same” (Durect Corporation, priority 2013, dated 2020)
Where two headings read alike, the source gives them in different places.

Columns and labels:
Assay type in all cases: physicochemical
[1] = Stability following exposure to gamma radiation, RPLC purity (Example 30)
Text: The APIs were mixed with the complexable polymers at a ratio of 1:1, 1:4 or 1:10. The instantaneous precipitation was separated from reaction media (ammonium bicarbonate in water) and dried via lyophilization. The dried powder or the dried powder suspended in Benzyl Benzoate were loaded either in glass vial or plastic syringes (Intervene) and packed in aluminum pouches. These samples were exposed to gamma radiation (12.5 kGy-17.5 kGy) for more than 8 hrs at room temperature with radiation indicator sticker (Sterigenics, Corona, Calif.). These gamma irradiated samples were then analyzed for purity using reverse phase liquid chromatography (RPLC) in reference to non-gamma irradiated samples.

[2] = Attempted complexation of risperidone with carboxylate-functionalized 50:50 copolymer (Example 10); conditions: reaction mixture at pH ~5
Procedure: Dissolution experiments were conducted as set forth below to determine the in vitro release from a mixture of risperidone and a carboxylate-functionalized 50:50 copolymer prepared as described in Example 2E. […] This observation is mainly due to the limited solubilities of risperidone and the copolymer in the reaction mixture at pH˜5.
1.00 g of a risperidone powder was placed in a 150 mL wide-mouth glass jar. 100 mL of 50 mM NH4COOCH3 solution were added, and the mixture was stirred at 400 rpm for 30 min at room temperature (until it became a visibly clear solution).
100 mL of a 10 mg/mL solution of functionalized polymer were then prepared by stirring 1.00 g of polymer in 100 mL of MilliQ water at 400 rpm (until it became a clear solution).
The pharmaceutically active agent solution was combined with the polymer solution at specific ratios as set forth below and monitored for precipitation. The combined materials were stirred for 30 min and then centrifuged in 50 mL Falcon™ tubes. The supernatant solution was removed for HPLC analysis to determine the quantity of free pharmaceutically active agent (not precipitated). The resultant precipitate was resuspended in 50-100 mL of 50 mM NH4COOCH3 solution and lyophilized according to the method described in Example 3.

[3] = In vitro dissolution of decitabine and azacytidine from amine functionalized copolymer complex (Example 12); conditions: complex with amine functionalized copolymer (Example 2H); PBS pH 7.4, 37° C.; FIG. 7
Procedure: 1.00 g of decitabine or azacytidine powder was placed in a 150 mL wide-mouth glass jar. 100 mL of 50 mM NH4HCO3 solution were added, and the mixture was stirred at 400 rpm for 30 min at room temperature (until it became a visibly clear solution).
100 mL of a 10 mg/mL solution of functionalized complexation polymer were then prepared by stirring 1.00 g of polymer in 100 mL of MilliQ water at 400 rpm (until it became a clear solution).
The decitabine or azacytidine solution was combined with the complexation polymer solution at specific ratios as set forth below and monitored for precipitation. The combined materials were stirred for 30 min and then centrifuged in 50 mL Falcon™ tubes. The supernatant solution was removed for HPLC analysis to determine the quantity of free pharmaceutically active agent (not complexed). The resultant precipitate was resuspended in 50-100 mL of 50 mM NH4HCO3 solution and lyophilized according to the method described in Example 3.
Lyophilized complex powder was suspended in 1 mL ammonium bicarbonate (50 mM).
For dissolution or in vitro release testing, PBS (Phosphate buffered saline) pH˜7.4 was used as the medium, and the complexed powder was dispersed into the dissolution medium. […] The amount of decitabine or azacytidine in solution at each time point was determined by HPLC.

Molecule: CCCCCCCCCCCCCCCC(=O)N[C@@H](CCC(=O)NCCCC[C@H](NC(=O)[C@H](C)NC(=O)[C@H](C)NC(=O)[C@H](CCC(N)=O)NC(=O)CNC(=O)[C@H](CCC(=O)O)NC(=O)[C@H](CC(C)C)NC(=O)[C@H](Cc1ccc(O)cc1)NC(=O)[C@H](CO)NC(=O)[C@H](CO)NC(=O)[C@@H](NC(=O)[C@H](CC(=O)O)NC(=O)[C@H](CO)NC(=O)[C@@H](NC(=O)[C@H](Cc1ccccc1)NC(=O)[C@@H](NC(=O)CNC(=O)[C@H](CCC(=O)O)NC(=O)[C@H](C)NC(=O)[C@@H](N)Cc1cnc[nH]1)[C@@H](C)O)[C@@H](C)O)C(C)C)C(=O)N[C@@H](CCC(=O)O)C(=O)N[C@@H](Cc1ccccc1)C(=O)N[C@H](C(=O)N[C@@H](C)C(=O)N[C@@H](Cc1c[nH]c2ccccc12)C(=O)N[C@@H](CC(C)C)C(=O)N[C@H](C(=O)N[C@@H](CCCNC(=N)N)C(=O)NCC(=O)N[C@@H](CCCNC(=N)N)C(=O)NCC(=O)O)C(C)C)[C@@H](C)CC)C(=O)O [Liraglutide]
- stability after 15 kGy gamma irradiation, non-complexed API ([1]; RPLC, relative to the complexed APIs, with a corresponding reduction in potency): degraded faster

Molecule: Cc1nc2n(c(=O)c1CCN1CCC(c3noc4cc(F)ccc34)CC1)CCCC2 [risperidone]
- complexation outcome with carboxylate-functionalized 50:50 copolymer (Example 2E) [2]: precipitated separately

Molecule: HGH: Human Growth Hormone (Biosolutions)
- stability after 15 kGy gamma irradiation, non-complexed API [1]: degraded faster

Molecule: Nc1ncn([C@@H]2O[C@H](CO)[C@@H](O)[C@H]2O)c(=O)n1 [azacytidine]
- stability under the tested dissolution conditions [3]: significantly degraded
